For `CC(C)C[C@H](NC(=O)N1CCOCC1)C(=O)N[C@@H](CCc1ccccc1)C(=O)c1oc(-c2ccccc2)nc1-c1ccccc1` [Example 5, Morpholine-4-carboxylic acid {1-(S)-[1-(S)-(2,4-diphenyloxazole-5-carbonyl)-3-phenylpropylcarbamoyl]-3-methylbutyl} amide], which melting point is on record?
Its melting point is 83 to 85 °C.

Source: patent US6608057B2, “Compounds useful as reversible inhibitors of cathepsin S” (Boehringer Ingelheim Pharmaceuticals, Inc., priority 1999, dated 2003)
